Results on 23 compounds are retold here after patent US11702429B2, “mTORC modulators and uses thereof” (Aeovian Pharmaceuticals, Inc., priority 2019, dated 2023).

SMILES strings stand for the structures. Where two headings read alike, the source gives them in different places.

Test [1] concerns the target T1, mTORC1 (Homo sapiens, UniProt P42345+P62942).
T1 construct: endogenous in cells; host or cells: PC3 cells (human prostate adenocarcinoma)
Briefly: Inhibition assay for mTORC1: phosphorylation of pS6K at Thr389, AlphaLISA in PC3 cells. Format: cell-based. The following applies: for IC50: read-out: pIC50 mTORC1 (converted). A general note: In Alpha technology, singlet oxygen from a donor bead excites a nearby acceptor bead.

For test [2], the target named is T2, mTORC2 (Homo sapiens, UniProt P42345+P62942).
T2 construct: endogenous in cells; host or cells: PC3 cells (human prostate adenocarcinoma)
The test can be described thus: Inhibition assay for mTORC2: phosphorylation of pAkt at Ser473, AlphaLISA in PC3 cells. Format: cell-based. The note with it: for IC50: read-out: pIC50 mTORC2 (converted).

[3] abbreviates: PC3 cells, treated 24 hours, pS6K Thr389, AlphaLISA, C16 diastereomer mixtures not separated.
[4] abbreviates: PC3 cells, treated 24 hours, pAkt Ser473, AlphaLISA, C16 diastereomer mixtures not separated.

T2 sequence (P62942 2-108 limits assumed, other chains not shown): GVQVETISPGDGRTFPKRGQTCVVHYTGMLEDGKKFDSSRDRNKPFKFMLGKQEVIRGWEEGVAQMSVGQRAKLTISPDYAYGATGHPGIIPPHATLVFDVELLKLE

For the compound `COC1C[C@@H]2CC[C@@H](C)[C@@](O)(O2)C(=O)C(=O)N2CCCCC2C(=O)O[C@H]([C@H](C)C[C@@H]2CC[C@@H](OC(=O)N(C)CCN3CCOCC3)[C@H](OC)C2)CC(=O)[C@H](C)/C=C(\C)[C@@H](O)[C@@H](OC)C(=O)[C@H](C)C[C@H](C)/C=C/C=C/C=C/1C` (stereo partly shown) [Compound 356], the IC50 was under 0.316 nM in test [1] and under 1000 nM in test [2].
In the case of `COCO[C@@H]1CC[C@@H](C[C@@H](C)[C@@H]2CC(=O)[C@H](C)/C=C(\C)[C@@H](O)[C@@H](OC)C(=O)[C@H](C)C[C@H](C)/C=C/C=C/C=C(\C)C(OC)C[C@@H]3CC[C@@H](C)[C@@](O)(O3)C(=O)C(=O)N3CCCCC3C(=O)O2)C[C@H]1OC` (stereo partly shown) [Compound 301], the results for the IC50 in test [1] and in test [2] were under 0.316 nM and under 1000 nM, respectively.
For the compound `COC1C[C@@H]2CC[C@@H](C)[C@@](O)(O2)C(=O)C(=O)N2CCCCC2C(=O)O[C@H]([C@H](C)C[C@@H]2CC[C@@H](OC(=O)NCCN3CCN(C)CC3)[C@H](OC)C2)CC(=O)[C@H](C)/C=C(\C)[C@@H](O)[C@@H](OC)C(=O)[C@H](C)C[C@H](C)/C=C/C=C/C=C/1C` (stereo partly shown) [Compound 367], the IC50 in test [1] is under 0.316 nM; in test [2] it was under 1000 nM.
Turning to `CO[C@@H]1C[C@H](C[C@@H](C)[C@@H]2CC(=O)[C@H](C)/C=C(\C)[C@@H](O)[C@@H](OC)C(=O)[C@H](C)C[C@H](C)/C=C/C=C/C=C(\C)C(OC[C@@H](C)O)C[C@@H]3CC[C@@H](C)[C@@](O)(O3)C(=O)C(=O)N3CCCCC3C(=O)O2)CC[C@H]1O` (stereo partly shown) [Compound 223], the figures for the IC50 in test [1] and in test [2] were 0.316 to 3.16 nM and over 10000 nM, respectively.
On the same counts, the results for `COC1C[C@@H]2CC[C@@H](C)[C@@](O)(O2)C(=O)C(=O)N2CCCCC2C(=O)O[C@H]([C@H](C)C[C@@H]2CC[C@@H](OC(=O)N(C)CCCN(C)C)[C@H](OC)C2)CC(=O)[C@H](C)/C=C(\C)[C@@H](O)[C@@H](OC)C(=O)[C@H](C)C[C@H](C)/C=C/C=C/C=C/1C` (stereo partly shown) [Compound 321] are under 0.316 nM and under 1000 nM.
As for `COCCCOC1CC2CCC(C)C(O)(O2)C(=O)C(=O)N2CCCCC2C(=O)OC(C(C)CC2CCC(OCCCO)C(OC)C2)CC(=O)C(C)C=C(C)C(O)C(OC)C(=O)C(C)CC(C)C=CC=CC=C1C` (stereo not shown) [Compound 33], the “pIC50 mTORC1” value in test [1] (setting [3]) is given as “A (pIC50 for mTORC1 of >9.5 as A)”. Also, the “pIC50 mTORC2” value in test [2] (setting [4]) is on record as “B (5 to 6 as B)”.
As to `COC1C[C@@H]2CC[C@@H](C)[C@@](O)(O2)C(=O)C(=O)N2CCCCC2C(=O)O[C@H]([C@H](C)C[C@@H]2CC[C@@H](OC(=O)NCCC3CC3)[C@H](OC)C2)CC(=O)[C@H](C)/C=C(\C)[C@@H](O)[C@@H](OC)C(=O)[C@H](C)C[C@H](C)/C=C/C=C/C=C/1C` (stereo partly shown) [Compound 337], the IC50 in test [1] was under 0.316 nM; in test [2], under 1000 nM.
For the compound `CO[C@@H]1C[C@H](C[C@@H](C)[C@@H]2CC(=O)[C@H](C)/C=C(\C)[C@@H](O)[C@@H](OC)C(=O)[C@H](C)C[C@H](C)/C=C/C=C/C=C(\C)C(O[C@H](CO)c3ccccc3)C[C@@H]3CC[C@@H](C)[C@@](O)(O3)C(=O)C(=O)N3CCCCC3C(=O)O2)CC[C@H]1O` (stereo partly shown) [Compound 204], the IC50 is under 0.316 nM in test [1] and under 1000 nM in test [2].
As for `CO[C@@H]1C[C@H](C[C@@H](C)[C@@H]2CC(=O)[C@H](C)/C=C(\C)[C@@H](O)[C@@H](OC)C(=O)[C@H](C)C[C@H](C)/C=C/C=C/C=C(\C)C(OCCCO)C[C@@H]3CC[C@@H](C)[C@@](O)(O3)C(=O)C(=O)N3CCCCC3C(=O)O2)CC[C@H]1O` (stereo partly shown) [Compound 210], the IC50 in test [1] is 0.316 to 3.16 nM; in test [2], under 1000 nM.
In the case of `COC1C[C@@H]2CC[C@@H](C)[C@@](O)(O2)C(=O)C(=O)N2CCCCC2C(=O)O[C@H]([C@H](C)C[C@@H]2CC[C@@H](OCCCN3CCC(O)CC3)[C@H](OC)C2)CC(=O)[C@H](C)/C=C(\C)[C@@H](O)[C@@H](OC)C(=O)[C@H](C)C[C@H](C)/C=C/C=C/C=C/1C` (stereo partly shown) [Compound 368], the IC50 in test [1] was under 0.316 nM; in test [2], under 1000 nM.
In the case of `CO[C@@H]1C[C@H](C[C@@H](C)[C@@H]2CC(=O)[C@H](C)/C=C(\C)[C@@H](O)[C@@H](OC)C(=O)[C@H](C)C[C@H](C)/C=C/C=C/C=C(\C)C(OCCO)C[C@@H]3CC[C@@H](C)[C@@](O)(O3)C(=O)C(=O)N3CCCC[C@H]3C(=O)O2)CC[C@H]1OCCCN1CCN(C)CC1` (mixture of isomers) [Compound 34], the IC50 in test [1] (setting [3]) was 0.316 to 3.16 nM; in test [2] (setting [4]), over 10000 nM.
As to `COC1C[C@@H]2CC[C@@H](C)[C@@](O)(O2)C(=O)C(=O)N2CCCCC2C(=O)O[C@H]([C@H](C)C[C@@H]2CC[C@@H](OC(=O)NCCCN(CCO)CCO)[C@H](OC)C2)CC(=O)[C@H](C)/C=C(\C)[C@@H](O)[C@@H](OC)C(=O)[C@H](C)C[C@H](C)/C=C/C=C/C=C/1C` (stereo partly shown) [Compound 358], the IC50 is under 0.316 nM in test [1] and under 1000 nM in test [2].
Take `CO[C@@H]1C[C@H](C[C@@H](C)[C@@H]2CC(=O)[C@H](C)/C=C(\C)[C@@H](O)[C@@H](OC)C(=O)[C@H](C)C[C@H](C)/C=C/C=C/C=C(\C)C(OCCO)C[C@@H]3CC[C@@H](C)[C@@](O)(O3)C(=O)C(=O)N3CCCCC3C(=O)O2)CC[C@H]1OC(=O)NCCO` (stereo partly shown) [Compound 64]: the “pIC50 mTORC1” value in test [1] (setting [3]) is given as “B (8.5 to 9.5 as B)”. In addition, the “pIC50 mTORC2” value in test [2] (setting [4]) is given as “A (PIC50 for mTORC2 of <5 as A)”.
Take `CO[C@@H]1C[C@H](C[C@@H](C)[C@@H]2CC(=O)[C@H](C)/C=C(\C)[C@@H](O)[C@@H](OC)C(=O)[C@H](C)C[C@H](C)/C=C/C=C/C=C(\C)C(OCCCc3ccccc3)C[C@@H]3CC[C@@H](C)[C@@](O)(O3)C(=O)C(=O)N3CCCCC3C(=O)O2)CC[C@H]1O` (stereo partly shown) [Compound 207]: the IC50 in test [1] is 0.316 to 3.16 nM; in test [2], 1000 to 10000 nM.
On the same counts, the results for `COC1C[C@@H]2CC[C@@H](C)[C@@](O)(O2)C(=O)C(=O)N2CCCCC2C(=O)O[C@H]([C@H](C)C[C@@H]2CC[C@@H](OC(=O)N(C)CCO)[C@H](OC)C2)CC(=O)[C@H](C)/C=C(\C)[C@@H](O)[C@@H](OC)C(=O)[C@H](C)C[C@H](C)/C=C/C=C/C=C/1C` (stereo partly shown) [Compound 313] are under 0.316 nM and under 1000 nM.
On the same counts, the results for `COCCOCCNC(=O)O[C@@H]1CC[C@@H](C[C@@H](C)[C@@H]2CC(=O)[C@H](C)/C=C(\C)[C@@H](O)[C@@H](OC)C(=O)[C@H](C)C[C@H](C)/C=C/C=C/C=C(\C)C(OC)C[C@@H]3CC[C@@H](C)[C@@](O)(O3)C(=O)C(=O)N3CCCCC3C(=O)O2)C[C@H]1OC` (stereo partly shown) [Compound 346] are under 0.316 nM and under 1000 nM.
Regarding `COC1C[C@@H]2CC[C@@H](C)[C@@](O)(O2)C(=O)C(=O)N2CCCCC2C(=O)O[C@H]([C@H](C)C[C@@H]2CC[C@@H](OCCCN3CCN(C)CC3)[C@H](OC)C2)CC(=O)[C@H](C)/C=C(\C)[C@@H](O)[C@@H](OC)C(=O)[C@H](C)C[C@H](C)/C=C/C=C/C=C/1C` (stereo partly shown) [Compound 332], the figures for the IC50 in test [1] and in test [2] were under 0.316 nM and under 1000 nM, respectively.
In the case of `COC1C[C@@H]2CC[C@@H](C)[C@@](O)(O2)C(=O)C(=O)N2CCCCC2C(=O)O[C@H]([C@H](C)C[C@@H]2CC[C@@H](OC(=O)NCCO)[C@H](OC)C2)CC(=O)[C@H](C)/C=C(\C)[C@@H](O)[C@@H](OC)C(=O)[C@H](C)C[C@H](C)/C=C/C=C/C=C/1C` (stereo partly shown) [Compound 362], the values for the IC50 in test [1] and in test [2] were under 0.316 nM and under 1000 nM, respectively.
In the same order, the values of `CO[C@@H]1C[C@H](C[C@@H](C)[C@@H]2CC(=O)[C@H](C)/C=C(\C)[C@@H](O)[C@@H](OC)C(=O)[C@H](C)C[C@H](C)/C=C/C=C/C=C(\C)C(c3cc(C)cs3)C[C@@H]3CC[C@@H](C)[C@@](O)(O3)C(=O)C(=O)N3CCCCC3C(=O)O2)CC[C@H]1O` (stereo partly shown) [Compound 203] are over 3.16 nM and 1000 to 10000 nM.
On to `COC1C[C@@H]2CC[C@@H](C)[C@@](O)(O2)C(=O)C(=O)N2CCCCC2C(=O)O[C@H]([C@H](C)C[C@@H]2CC[C@@H](OCc3ccccc3)[C@H](OC)C2)CC(=O)[C@H](C)/C=C(\C)[C@@H](O)[C@@H](OC)C(=O)[C@H](C)C[C@H](C)/C=C/C=C/C=C/1C` (stereo partly shown) [Compound 305], for which the IC50 in test [1] is under 0.316 nM; in test [2] it was under 1000 nM.
As for `COC1C[C@@H]2CC[C@@H](C)[C@@](O)(O2)C(=O)C(=O)N2CCCCC2C(=O)O[C@H]([C@H](C)C[C@@H]2CC[C@@H](OCCCN3CCOCC3)[C@H](OC)C2)CC(=O)[C@H](C)/C=C(\C)[C@@H](O)[C@@H](OC)C(=O)[C@H](C)C[C@H](C)/C=C/C=C/C=C/1C` (stereo partly shown) [Compound 322], the IC50 in test [1] is under 0.316 nM; in test [2], under 1000 nM.
Regarding `CO[C@@H]1C[C@H](C[C@@H](C)[C@@H]2CC(=O)[C@H](C)/C=C(\C)[C@@H](O)[C@@H](OC)C(=O)[C@H](C)C[C@H](C)/C=C/C=C/C=C(\C)C(SC(C)C)C[C@@H]3CC[C@@H](C)[C@@](O)(O3)C(=O)C(=O)N3CCCCC3C(=O)O2)CC[C@H]1O` (stereo partly shown) [Compound 201], the IC50 in test [1] was over 3.16 nM; in test [2] it was 1000 to 10000 nM.
On the same counts, the results for `COC1C[C@@H]2CC[C@@H](C)[C@@](O)(O2)C(=O)C(=O)N2CCCCC2C(=O)O[C@H]([C@H](C)C[C@@H]2CC[C@@H](OCCCN(C)C)[C@H](OC)C2)CC(=O)[C@H](C)/C=C(\C)[C@@H](O)[C@@H](OC)C(=O)[C@H](C)C[C@H](C)/C=C/C=C/C=C/1C` (stereo partly drawn) [Compound 363, (1R,9S,12S,15R,16E,18R,19R, 21R,23S,24E,26E,28E,30S,32S,35R)-12-[(1R)-2-[(1S,3R,4R)-4-[3-(dimethylamino)propoxy]-3-methoxy-cyclohexyl]-1-methyl-ethyl]-1,18-dihydroxy-19,30-dimethoxy-15,17,21,23,29,35-hexamethyl-11,36-dioxa-4-azatricyclo[30.3.1.0^4,9]hexatriaconta-16,24,26,28-tetraene-2,3,10,14,20-pentone] are under 0.316 nM and under 1000 nM.
